Measurements from patent US20090233939A1, “TREATMENT OF AMM” (priority 2002, published 2009).

Tests used:
[1] = system: patient having a protuberant spleen; experiment: Example 2: patient with massive protuberant spleen treated with PTK787; assay type: in vivo, human; conditions: 750 mg twice daily, after five days of therapy
Source text: After five days of therapy, the spleen had less than 10% of its original size.

[2] = system: patient with splenomegaly
Flt-1 = Flt-1 (Homo sapiens, UniProt P17948); conditions: cited from earlier work
Flt-4 = Flt-4 (Homo sapiens, UniProt P35916); conditions: cited from earlier work
[3] = system: other tyrosine kinase receptors, including c-Kit, bFGF and PDGF; conditions: cited from earlier work

Chain of Flt-4 (P35916 25-1363, species assumed): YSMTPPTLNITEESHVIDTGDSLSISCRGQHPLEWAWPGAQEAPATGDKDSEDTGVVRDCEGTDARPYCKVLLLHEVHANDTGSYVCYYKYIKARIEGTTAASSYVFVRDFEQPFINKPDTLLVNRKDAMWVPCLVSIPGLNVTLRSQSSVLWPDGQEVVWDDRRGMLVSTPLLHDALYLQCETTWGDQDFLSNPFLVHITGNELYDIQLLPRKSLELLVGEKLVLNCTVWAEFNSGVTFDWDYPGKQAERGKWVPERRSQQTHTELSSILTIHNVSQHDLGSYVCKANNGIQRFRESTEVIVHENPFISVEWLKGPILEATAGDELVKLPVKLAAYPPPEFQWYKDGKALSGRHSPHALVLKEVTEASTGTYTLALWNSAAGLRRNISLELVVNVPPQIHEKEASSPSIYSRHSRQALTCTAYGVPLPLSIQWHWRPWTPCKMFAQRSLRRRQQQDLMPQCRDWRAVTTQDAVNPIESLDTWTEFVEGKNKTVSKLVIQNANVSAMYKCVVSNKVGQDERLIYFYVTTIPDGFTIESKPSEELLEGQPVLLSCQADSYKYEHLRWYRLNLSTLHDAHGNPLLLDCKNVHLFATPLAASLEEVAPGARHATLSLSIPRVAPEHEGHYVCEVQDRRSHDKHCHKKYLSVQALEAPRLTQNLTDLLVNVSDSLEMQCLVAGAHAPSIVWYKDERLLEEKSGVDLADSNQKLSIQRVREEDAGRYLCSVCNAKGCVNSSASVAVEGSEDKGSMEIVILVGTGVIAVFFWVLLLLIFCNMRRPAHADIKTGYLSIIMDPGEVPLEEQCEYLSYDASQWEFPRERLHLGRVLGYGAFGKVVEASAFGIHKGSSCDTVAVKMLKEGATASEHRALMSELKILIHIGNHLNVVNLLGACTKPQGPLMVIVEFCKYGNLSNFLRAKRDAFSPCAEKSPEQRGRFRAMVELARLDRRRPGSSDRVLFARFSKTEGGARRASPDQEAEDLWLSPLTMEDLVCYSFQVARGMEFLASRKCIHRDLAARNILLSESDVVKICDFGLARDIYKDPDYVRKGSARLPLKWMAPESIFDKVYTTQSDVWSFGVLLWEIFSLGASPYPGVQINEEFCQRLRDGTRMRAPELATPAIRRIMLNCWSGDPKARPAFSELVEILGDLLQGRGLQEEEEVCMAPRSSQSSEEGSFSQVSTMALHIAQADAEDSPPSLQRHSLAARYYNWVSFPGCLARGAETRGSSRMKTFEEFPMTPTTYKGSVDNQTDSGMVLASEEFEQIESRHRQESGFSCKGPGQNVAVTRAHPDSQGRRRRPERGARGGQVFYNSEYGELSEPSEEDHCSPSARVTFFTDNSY
Chain of Flt-1 (P17948 27-1338, species assumed): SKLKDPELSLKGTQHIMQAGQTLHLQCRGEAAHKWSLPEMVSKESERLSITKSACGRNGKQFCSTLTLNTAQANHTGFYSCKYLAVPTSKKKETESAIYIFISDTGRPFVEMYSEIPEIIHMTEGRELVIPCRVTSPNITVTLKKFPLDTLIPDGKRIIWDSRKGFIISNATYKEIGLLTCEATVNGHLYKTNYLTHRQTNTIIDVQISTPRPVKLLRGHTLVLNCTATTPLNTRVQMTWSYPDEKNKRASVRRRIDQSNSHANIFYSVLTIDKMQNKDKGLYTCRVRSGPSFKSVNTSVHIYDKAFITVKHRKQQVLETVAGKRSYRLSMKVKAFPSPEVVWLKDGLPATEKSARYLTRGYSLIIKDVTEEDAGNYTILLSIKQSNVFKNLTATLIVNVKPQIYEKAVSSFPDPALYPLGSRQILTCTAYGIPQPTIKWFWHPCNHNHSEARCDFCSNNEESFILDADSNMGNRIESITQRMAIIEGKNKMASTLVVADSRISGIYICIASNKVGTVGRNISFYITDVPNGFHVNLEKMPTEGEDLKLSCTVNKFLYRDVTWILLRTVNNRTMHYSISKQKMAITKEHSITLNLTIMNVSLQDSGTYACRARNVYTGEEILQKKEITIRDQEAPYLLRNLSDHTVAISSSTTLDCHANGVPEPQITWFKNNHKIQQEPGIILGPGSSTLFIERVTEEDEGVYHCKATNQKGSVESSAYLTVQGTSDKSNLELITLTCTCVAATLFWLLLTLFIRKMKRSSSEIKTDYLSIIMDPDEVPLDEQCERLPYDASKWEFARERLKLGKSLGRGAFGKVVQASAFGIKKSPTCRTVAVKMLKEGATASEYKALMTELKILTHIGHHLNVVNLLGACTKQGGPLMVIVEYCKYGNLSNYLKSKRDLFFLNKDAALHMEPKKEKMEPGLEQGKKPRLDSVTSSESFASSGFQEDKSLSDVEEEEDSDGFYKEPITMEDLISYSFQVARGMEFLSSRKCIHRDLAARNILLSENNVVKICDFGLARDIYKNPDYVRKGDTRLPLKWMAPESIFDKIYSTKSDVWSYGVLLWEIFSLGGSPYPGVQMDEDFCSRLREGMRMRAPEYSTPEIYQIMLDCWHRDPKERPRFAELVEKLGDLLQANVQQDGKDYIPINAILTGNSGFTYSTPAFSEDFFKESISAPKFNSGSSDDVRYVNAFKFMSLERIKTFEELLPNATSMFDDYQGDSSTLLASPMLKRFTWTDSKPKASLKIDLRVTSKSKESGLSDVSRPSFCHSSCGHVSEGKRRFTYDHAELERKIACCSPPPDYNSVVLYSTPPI

With PTK787 the spleen size [1] was “less than 10 % of its original size”, the splenomegaly ([2]; 750 mg twice daily, first 14 days of chemotherapy) was “decrease of splenomegaly” and the “white blood cells count” value ([2]; 750 mg twice daily, first 14 days, drop from 19,000) was 14,000. For the same substance, the “spleen during interruption of therapy” value ([2]; during the interruption of therapy) was “the spleen began to increase again”, the “inhibition of Flt-1” value (Flt-1) was “can also inhibit” and the “inhibition of Flt-4” value (Flt-4) was “can also inhibit”. For the same substance, the “activity against other tyrosine kinase receptors” value [3] was “has activity”.
